One test concerns the target human Factor XIa (Homo sapiens (Human), UniProt P03951). In words: Factor XIa Assay. The format is biochemical. Conditions: purified human Factor XIa 40 pM, Z-Gly-Pro-Arg-AFC 100 μM, pH 7.4; read-out: FXIa Ki. An outline of the steps: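 Ki derived from the dependence of Vo/Vi on inhibitor concentration under a competitive-inhibition model, after pre-equilibration of enzyme and inhibitor. Reaction: 40 pM human FXIa, 100 μM Z-Gly-Pro-Arg-AFC, HEPES 50 mM pH 7.4 with NaCl, CaCl2 and PEG 8000; run at room temperature or 37° C.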
human Factor XIa, sequence (P03951 388-625): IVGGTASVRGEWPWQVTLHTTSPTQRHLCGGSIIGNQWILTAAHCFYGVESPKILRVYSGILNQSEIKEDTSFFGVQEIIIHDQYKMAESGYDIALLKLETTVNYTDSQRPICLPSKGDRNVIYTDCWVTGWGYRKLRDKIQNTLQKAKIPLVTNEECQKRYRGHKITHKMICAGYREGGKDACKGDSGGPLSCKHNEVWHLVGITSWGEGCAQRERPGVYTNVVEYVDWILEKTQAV
human Factor XIa, sequence (P03951 19-387 partner): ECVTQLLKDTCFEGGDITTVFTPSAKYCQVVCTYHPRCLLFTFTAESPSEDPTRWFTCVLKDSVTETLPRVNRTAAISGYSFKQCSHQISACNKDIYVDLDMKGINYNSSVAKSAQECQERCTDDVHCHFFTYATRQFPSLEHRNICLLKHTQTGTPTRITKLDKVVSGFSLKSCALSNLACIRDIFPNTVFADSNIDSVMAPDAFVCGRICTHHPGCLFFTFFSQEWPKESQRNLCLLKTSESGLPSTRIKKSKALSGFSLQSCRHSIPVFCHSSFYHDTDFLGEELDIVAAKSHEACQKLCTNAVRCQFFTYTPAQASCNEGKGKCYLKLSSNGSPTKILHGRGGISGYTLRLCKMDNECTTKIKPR
In general, Ki refers to the dissociation constant of the complex between target and ligand, obtained from inhibition or displacement. As for `CO[C@@H]1C[C@@H](C(=O)N2CC[C@@]3(C2)OC(=O)Nc2ccc(Cl)cc23)N(C(=O)c2ccc3nc(N)sc3c2)C1` [Example 290, (R)-1′-((2S,4R)-1-(2-aminobenzo[d]thiazole-6-carbonyl)-4-methoxypyrrolidine-2-carbonyl)-6-chlorospiro[benzo[d][1,3]oxazine-4,3′-pyrrolidin]-2(1H)-one], the Ki came to 2400 nM. On to `COC(=O)Nc1ccc(C(=O)N[C@@H](Cc2ccccc2)C(=O)N2CCC[C@@]3(C2)OC(=O)Nc2ccc(C(F)(F)F)cc23)cc1` [Example 10, methyl (4-(((S)-1-oxo-1-((R)-2-oxo-6-(trifluoromethyl)-1,2-dihydrospiro[benzo[d][1,3]oxazine-4,3′-piperidin]-1′-yl)-3-phenylpropan-2-yl)carbamoyl)phenyl)carbamate], for which the Ki turned out to be 8440 nM. As for `O=C1Nc2ccc(Cl)c(F)c2[C@@]2(CCCN(C(=O)[C@H](Cc3cncnc3)NC(=O)c3ccc4[nH]c(=O)ccc4c3)C2)O1` [Example 113, N-((S)-1-((R)-6-chloro-5-fluoro-2-oxo-1,2-dihydrospiro[benzo[d][1,3]oxazine-4,3′-piperidin]-1′-yl)-1-oxo-3-(pyrimidin-5-yl)propan-2-yl)-2-oxo-1,2-dihydroquinoline-6-carboxamide], the Ki worked out at 15.6 nM. With `COC(=O)Nc1ccc(C(=O)N[C@@H](Cc2ccccc2)C(=O)N2CCC[C@@]3(C2)OC(=O)Nc2c(F)cc(Cl)cc23)cc1` [Example 12, methyl (4-(((S)-1-((R)-6-chloro-8-fluoro-2-oxo-1,2-dihydrospiro[benzo[d][1,3]oxazine-4,3′-piperidin]-1′-yl)-1-oxo-3-phenylpropan-2-yl)carbamoyl)phenyl)carbamate], the Ki stood at 109 nM. As to `Nc1[nH]nc2c1CN(C(=O)N[C@@H](Cc1ccccc1)C(=O)N1CCC3(C1)OC(=O)Nc1ccc(Cl)cc13)C2` (stereo partly drawn) [Example 276, 3-amino-N-((2S)-1-(6-chloro-2-oxo-1,2-dihydrospiro[benzo[d][1,3]oxazine-4,3′-pyrrolidin]-1′-yl)-1-oxo-3-phenylpropan-2-yl)-4,6-dihydropyrrolo[3,4-c]pyrazole-5(2H)-carboxamide], the Ki came to 5000 nM.

As for `COC(=O)Nc1ccc(C(=O)NC[C@@H](Cc2ccccc2)C(=O)N2CCC3(C2)OC(=O)Nc2ccc(Cl)cc23)cc1` (stereo partly drawn) [Example 41, methyl (4-(((2R)-2-benzyl-3-(6-chloro-2-oxo-1,2-dihydrospiro[benzo[d][1,3]oxazine-4,3′-pyrrolidin]-1′-yl)-3-oxopropyl)carbamoyl)phenyl)carbamate], the inhibition constant Ki was over 5000 nM. The same measure, in the same setting: as for `COC(=O)Nc1ccc2[nH]c([C@@H](Cc3ccccc3)C(=O)N3CC[C@]4(C3)OC(=O)Nc3ccc(Cl)cc34)nc2c1` [Example 131d, methyl (2-((R)-1-((S)-6-chloro-2-oxo-1,2-dihydrospiro[benzo[d][1,3]oxazine-4,3′-pyrrolidin]-1′-yl)-1-oxo-3-phenylpropan-2-yl)-1H-benzo[d]imidazol-5-yl)carbamate], the figure is 5000 nM; as for `O=C1Nc2ccc(Cl)c(F)c2[C@@]2(CCCN(C(=O)C(Cc3ccccc3)c3nc(-c4csc(C(=O)O)c4F)c[nH]3)C2)O1` (stereo partly drawn) [Example 124, 4-(2-(1-((R)-6-chloro-5-fluoro-2-oxo-1,2-dihydrospiro[benzo[d][1,3]oxazine-4,3′-piperidin]-1′-yl)-1-oxo-3-phenylpropan-2-yl)-1H-imidazol-4-yl)-3-fluorothiophene-2-carboxylic acid], 209 nM; as for `COC(=O)Nc1ccc(C(=O)N[C@@H](Cc2ccccc2)C(=O)N2CCCCC3(C2)OC(=O)Nc2ccc(Cl)cc23)cc1` (stereo partly drawn) [Example 4, methyl (4-(((2S)-1-(6′-chloro-2′-oxo-1′,2′-dihydrospiro[azepane-3,4′-benzo[d][1,3]oxazin]-1-yl)-1-oxo-3-phenylpropan-2-yl)carbamoyl)phenyl)carbamate], 4600 nM. `O=C1Nc2ccc(Cl)cc2[C@@]2(CCCN(C(=O)C(Cc3ccc(F)cc3)c3nc4ccc(C(=O)O)cc4[nH]3)C2)O1` (single isomer, unassigned) [Example 132A (isomer A)]: the Ki stood at 61.7 nM. On the same count and under the same terms, as for `COC(=O)Nc1ccc(C(=O)N[C@@H](CCCCO)C(=O)N2CCC3(C2)OC(=O)Nc2ccc(Cl)cc23)cc1` (stereo partly drawn) [Example 51, methyl (4-(((2S)-1-(6-chloro-2-oxo-1,2-dihydrospiro[benzo[d][1,3]oxazine-4,3′-pyrrolidin]-1′-yl)-6-hydroxy-1-oxohexan-2-yl)carbamoyl)phenyl)carbamate], the figure is 55.7 nM; as for `COC(=O)Nc1ccc(C(=O)N[C@@H](CC2CC2)C(=O)N2CC[C@@]3(C2)OC(=O)Nc2ccc(Cl)cc23)cc1` [Example 21b, methyl (4-(((S)-1-((R)-6-chloro-2-oxo-1,2-dihydrospiro[benzo[d][1,3]oxazine-4,3′-pyrrolidin]-1′-yl)-3-cyclopropyl-1-oxopropan-2-yl)carbamoyl)phenyl)carbamate], 31.2 nM; as for `O=C1Nc2ccc(Cl)cc2[C@]2(CCN(C(=O)[C@@H](Cc3ccccc3)C(=O)Nc3ccc(C(=O)O)cc3)C2)O1` [Example 121a, 4-((S)-2-benzyl-3-((S)-6-chloro-2-oxo-1,2-dihydrospiro[benzo[d][1,3]oxazine-4,3′-pyrrolidin]-1′-yl)-3-oxopropanamido)benzoic acid], at least 5000 nM. Same read-out and setting: in the case of `O=C1COc2ccc(S(=O)(=O)N[C@@H](Cc3ccccc3)C(=O)N3CCC4(C3)OC(=O)Nc3ccc(Cl)cc34)cc2N1` (stereo partly drawn) [Example 282, N-((2S)-1-(6-chloro-2-oxo-1,2-dihydrospiro[benzo[d][1,3]oxazine-4,3′-pyrrolidin]-1′-yl)-1-oxo-3-phenylpropan-2-yl)-3-oxo-3,4-dihydro-2H-benzo[b][1,4]oxazine-6-sulfonamide] it was at least 5000 nM; in that of `O=C1Nc2ccc(Cl)cc2[C@@]2(CCCN(C(=O)C(Cc3ccc(F)cc3)c3nc(Cl)c(-c4ccc(C(=O)O)cc4)[nH]3)C2)O1` (stereo partly drawn) [Example 128, 4-(4-chloro-2-(1-((R)-6-chloro-2-oxo-1,2-dihydrospiro[benzo[d][1,3]oxazine-4,3′-piperidin]-1′-yl)-3-(4-fluorophenyl)-1-oxopropan-2-yl)-1H-imidazol-5-yl)benzoic acid], 8750 nM. With `COC(=O)Nc1ccc(-c2c[nH]c([C@H](Cc3ccccc3)C(=O)N3CC[C@]4(C3)OC(=O)Nc3ccc(Cl)cc34)n2)cc1` [Example 122b, methyl (4-(2-((S)-1-((S)-6-chloro-2-oxo-1,2-dihydrospiro[benzo[d][1,3]oxazine-4,3′-pyrrolidin]-1′-yl)-1-oxo-3-phenylpropan-2-yl)-1H-imidazol-4-yl)phenyl)carbamate], the Ki was determined as 4690 nM. As for `COC(=O)Nc1ccc(C(=O)N[C@@H](CC2CCC2)C(=O)N2CCC[C@@]3(C2)OC(=O)Nc2ccc(Cl)cc23)cc1` [Example 71, methyl (4-(((S)-1-((R)-6-chloro-2-oxo-1,2-dihydrospiro[benzo[d][1,3]oxazine-4,3′-piperidin]-1′-yl)-3-cyclobutyl-1-oxopropan-2-yl)carbamoyl)phenyl)carbamate], the Ki came to 50.9 nM.

The same test, now with this note: read-out: FXIa Ki.
In the case of `O=C1Nc2ccc(Cl)cc2C2(CCN(C(=O)[C@H](Cc3ccccc3)NC(=O)c3ccc(-c4nnn[nH]4)cc3)C2)O1` (stereo partly drawn) [Example 151, N-((2S)-1-(6-chloro-2-oxo-1,2-dihydrospiro[benzo[d][1,3]oxazine-4,3′-pyrrolidin]-1′-yl)-1-oxo-3-phenylpropan-2-yl)-4-(1H-tetrazol-5-yl)benzamide], the Ki is 1780 nM. The same measure, in the same setting: in the case of `CC(=O)Nc1cc(C(=O)N[C@@H](Cc2ccccc2)C(=O)N2CCC3(C2)OC(=O)Nc2ccc(Cl)cc23)ccn1` (stereo partly shown) [Example 168] it was 576 nM; in that of `O=C1Nc2ccc(Cl)cc2C2(CCN(C(=O)[C@H](Cc3ccccc3)NC(=O)c3ccccc3-n3cccn3)C2)O1` (stereo partly drawn) [Example 154, N-((2S)-1-(6-chloro-2-oxo-1,2-dihydrospiro[benzo[d][1,3]oxazine-4,3′-pyrrolidin]-1′-yl)-1-oxo-3-phenylpropan-2-yl)-2-(1H-pyrazol-1-yl)benzamide], 2520 nM. Same read-out and setting: in the case of `O=C1Nc2ccc(Cl)cc2C2(CCN(C(=O)[C@H](Cc3ccccc3)NC(=O)c3ccc(-n4ccnc4)nc3)C2)O1` (stereo partly shown) [Example 159] it was 743 nM; in that of `COC(=O)Nc1ccc(C(=O)N[C@@H](Cc2ccccc2)C(=O)N2CCC3(C2)OC(=O)Nc2ccc(Cl)cc23)nc1` (stereo partly shown) [Example 166], 184 nM; in that of `O=C1Nc2ccc(Cl)cc2C2(CCN(C(=O)[C@H](Cc3ccccc3)NC(=O)c3ccc4c(c3)C(=O)NC4)C2)O1` (stereo partly shown) [Example 172], 328 nM.

On to `NS(=O)(=O)c1ccc(C(=O)N[C@@H](Cc2ccccc2)C(=O)N2CCC3(C2)OC(=O)Nc2ccc(Cl)cc23)cc1` (stereo partly drawn) [Example 139, N-((2S)-1-(6-chloro-2-oxo-1,2-dihydrospiro[benzo[d][1,3]oxazine-4,3′-pyrrolidin]-1′-yl)-1-oxo-3-phenylpropan-2-yl)-4-sulfamoylbenzamide], for which the Ki was found to be 928 nM. The same measure, in the same setting: as for `COC(=O)Nc1ccc(C(=O)N[C@@H](Cc2ccccc2)C(=O)N2CCC[C@@]3(C2)OC(=O)Nc2ccc(Cl)c(F)c23)nn1` [Example 242], the figure is 177 nM; as for `O=C1Nc2ccc(Cl)cc2C2(CCN(C(=O)[C@H](Cc3ccccc3)NC(=O)c3ccc4c(c3)S(=O)(=O)NC4=O)C2)O1` (stereo partly shown) [Example 184], 5000 nM; as for `CCOP(=O)(OCC)c1ccc(C(=O)N[C@H](Cc2ccccc2)C(=O)N2CCC[C@@]3(C2)OC(=O)Nc2ccc(Cl)c(F)c23)cc1` [Example 229, diethyl (4-(((R)-1-((R)-6-chloro-5-fluoro-2-oxo-1,2-dihydrospiro[benzo[d][1,3]oxazine-4,3′-piperidin]-1′-yl)-1-oxo-3-phenylpropan-2-yl)carbamoyl)phenyl)phosphonate], 8750 nM. As for `Cc1nc(C(=O)N[C@@H](Cc2ccccc2)C(=O)N2CCC3(C2)OC(=O)Nc2ccc(Cl)cc23)co1` (stereo partly shown) [Example 146], the Ki stood at 5000 nM.

The values are drawn from patent US10093683B2, “Factor XIa inhibitors” (Merck Sharp & Dohme Corp., priority 2014, dated 2018).
